In publication doi:10.64898/2025.12.04.692314v1 (biorxiv, 2025):

Columns and labels:
Type in all cases: binding
[1] = target: PhACO1 (Petunia x hybrida, UniProt Q08506); assay: isothermal titration calorimetry
[2] = target: PhACO1 (Petunia x hybrida, UniProt Q08506, R244A); assay: isothermal titration calorimetry
[3] = target: AtACO2 (Arabidopsis thaliana, UniProt Q41931); assay: intrinsic tryptophan fluorescence quenching; settings: 5 µM enzyme, Ni(II), 50 mM Tris pH 7.5, 28 °C; negative control (non-binder)
AtACO2, sequence (Q41931 whole entry): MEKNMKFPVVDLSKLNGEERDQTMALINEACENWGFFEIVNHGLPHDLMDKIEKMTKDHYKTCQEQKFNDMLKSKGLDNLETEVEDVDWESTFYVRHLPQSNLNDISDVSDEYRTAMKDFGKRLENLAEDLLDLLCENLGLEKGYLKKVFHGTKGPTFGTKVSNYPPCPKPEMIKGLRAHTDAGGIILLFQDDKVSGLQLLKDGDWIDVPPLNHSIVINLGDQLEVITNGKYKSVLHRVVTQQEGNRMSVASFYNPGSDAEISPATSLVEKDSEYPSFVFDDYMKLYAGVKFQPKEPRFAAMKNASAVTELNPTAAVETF

PhACO1 (Petunia x hybrida, UniProt Q08506), sequence (Q08506 whole entry): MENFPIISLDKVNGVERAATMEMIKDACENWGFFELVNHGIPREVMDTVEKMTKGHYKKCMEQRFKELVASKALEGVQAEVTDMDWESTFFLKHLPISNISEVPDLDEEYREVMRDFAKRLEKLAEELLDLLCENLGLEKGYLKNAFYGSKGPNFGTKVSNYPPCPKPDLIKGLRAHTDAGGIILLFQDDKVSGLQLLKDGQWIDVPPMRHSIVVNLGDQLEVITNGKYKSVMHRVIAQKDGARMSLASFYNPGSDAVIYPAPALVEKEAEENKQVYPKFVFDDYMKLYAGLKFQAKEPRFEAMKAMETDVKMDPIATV
PhACO1 (Petunia x hybrida, UniProt Q08506, R244A), sequence (Q08506 whole entry R244A): as the sequence (Q08506 whole entry) above, with R244A counted along it

| Structure (SMILES) | Kd [1] | Kd [2] | intrinsic tryptophan fluorescence quenching [3] |
| --- | --- | --- | --- |
| O=C(O)c1cnccn1 [POA] | 69.5 µM | 104 µM | – |
| O=C(O)c1ccccc1 [benzoic acid] | – | – | benzoic acid did not quench fluorescence |
